# Results published in paper PMC10547238, “Discovery of Potent Tetrazole Free Fatty Acid Receptor 2 Antagonists” (Journal of Medicinal Chemistry, 2023).
# Values joined by “and” are separate entries in the source; they are usually repeats but may differ in a detail not shown here. Equal values may be shown once. “Also recorded” adds a separate entry of the source. Read-outs that look alike come from different tables or passages of the source.
# Experiments:
# Format in all cases: cell-based
# hFFA3 = biological target: T1, hFFA3 (Homo sapiens, UniProt O14843); assay: cAMP assay, Flp-In T-Rex 293 cells expressing hFFA3-eYFP; conditions: at 10 μM
# T1 construct: expressed in transfected cells; host or cells: Flp-In T-Rex 293 cells, doxycycline-induced
# T1 sequence (O14843 1-346): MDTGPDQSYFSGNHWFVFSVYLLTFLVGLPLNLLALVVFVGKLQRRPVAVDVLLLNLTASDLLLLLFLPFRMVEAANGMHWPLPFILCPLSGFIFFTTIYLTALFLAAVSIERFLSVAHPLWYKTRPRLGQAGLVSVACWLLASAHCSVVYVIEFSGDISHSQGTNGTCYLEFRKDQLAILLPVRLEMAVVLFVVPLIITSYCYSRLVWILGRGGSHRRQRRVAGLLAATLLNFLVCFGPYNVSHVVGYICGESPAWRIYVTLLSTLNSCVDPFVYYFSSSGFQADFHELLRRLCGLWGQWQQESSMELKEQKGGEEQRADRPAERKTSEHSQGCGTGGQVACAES
# Protocol: The hFFA2-eYFP and hFFA3-eYFP Flp-In T-Rex 293 cell lines were maintained in Dulbecco’s modified Eagle mMedium (DMEM, ThermoFisher #11965092) supplemented with 10% (v/v) fetal bovine serum, 100 U/mL penicillin, 100 μg/mL streptomycin, 5 μg/mL blasticidin S, and 200 μg/mL hygromycin B and incubated at 37 °C and 5% CO2 in a humidified incubator. Cells were passaged at 70–80% confluency.
# To determine the compound’s ability to activate or inhibit the Gi-coupled FFA2 or FFA3, intracellular cAMP concentrations were determined using Flp-In T-Rex293 cells induced to express hFFA2-eYFP or hFFA3-eYFP. […]
# In agonist mode, the next day, the agonist was added in Hank’s balanced salt solution supplemented with 20 mM HEPES, 1 mM MgCl2, and 1 mM CaCl2 at pH 7.4 (HBSS) together with 50 μM 3-isobutyl-1-methylxanthine (IBMX) and 3 μM forskolin. After 25 min pf incubation at rt, agonist-induced intracellular cAMP production was assessed by stopping the reactions and measuring the output with an Envision plate reader using a time-resolved fluorescence protocol, measuring the light emission at 620 and 665 nm.
# In antagonist mode, the cells were pre-incubated for 20 min with antagonist test compounds in HBSS together with 50 μM IBMX at rt. […] All analyses were performed in triplicate and analyzed using GraphPad Prism (version 9).
# human neutrophils = assay: Human neutrophil respiratory burst (luminol-amplified chemiluminescence); conditions: for IC50: Neutrophil, read-out: pIC50 on C3-induced respiratory burst (converted)
# Protocol: Human peripheral blood neutrophils were isolated from healthy volunteer buffy coats. Initially, the majority of red blood cells were sedimented using 2% w/v dextran sulfate in a 0.9% NaCl solution for 15 min. Next, the upper phase was centrifuged for 10 min at 200g and the supernatant was discarded. The pellet was resuspended in 0.9% NaCl solution, and neutrophils were separated from here using Lymphoprep (STEMCELL Technologies #07851) and density-gradient centrifugation (400g for 30 min). Then, the remaining red blood cells were subjected to hypotonic lysis by addition of 10 mL of sterile water followed by addition of 10 mL of 1.8% NaCl solution. Cell count and viability were determined using trypan blue and a Countess cell counter. Isolated neutrophils were characterized by May–Grunwald–Giemsa staining and immediately used for migration assays or assessment of respiratory burst.
# Human neutrophil respiratory burst was assessed via luminol-amplified chemiluminescence. Freshly isolated human neutrophils were seeded in a concentration of 100,000 cells/well in a flat bottom, white 96-well plate (PerkinElmer cat #6005680). Cells were pre-incubated for 30 min with test compounds or vehicles (DMSO) in HBSS in a humidified atmosphere at 37 °C and 5% CO2. Next, luminol (Merck cat #521-31-3) was added to a final concentration of 10 μM. Lastly, the vehicle or the FFA2 agonist, sodium propionate, was added to a final concentration of 1 mM. Immediately thereafter, chemiluminescence was evaluated with an LUMIstar Omega microplate reader (PerkinElmer) where light emission was recorded for 1 s/well every 60 s for 1 h at 37 °C. Experiments were performed in triplicate and analyzed using GraphPad Prism (version 9). Fold response was calculated as the relative luminescence of samples compared to the vehicle control.
# hFFA2 = biological target: T2, hFFA2 (Homo sapiens, UniProt O15552); assay: cAMP assay, antagonist mode, Flp-In T-Rex 293 cells expressing hFFA2-eYFP; conditions: for cAMP pIC50: hFFA2, antagonist mode, propionate at EC80, mean ± SEM, three or more experiments; for LLEcAMP: pIC50, cAMP – ClogP; for LLEcAMP-logD: pIC50, cAMP – logD7.4
# T2 construct: expressed in transfected cells; host or cells: Flp-In T-Rex 293 cells, doxycycline-induced
# T2 sequence (O15552 1-330): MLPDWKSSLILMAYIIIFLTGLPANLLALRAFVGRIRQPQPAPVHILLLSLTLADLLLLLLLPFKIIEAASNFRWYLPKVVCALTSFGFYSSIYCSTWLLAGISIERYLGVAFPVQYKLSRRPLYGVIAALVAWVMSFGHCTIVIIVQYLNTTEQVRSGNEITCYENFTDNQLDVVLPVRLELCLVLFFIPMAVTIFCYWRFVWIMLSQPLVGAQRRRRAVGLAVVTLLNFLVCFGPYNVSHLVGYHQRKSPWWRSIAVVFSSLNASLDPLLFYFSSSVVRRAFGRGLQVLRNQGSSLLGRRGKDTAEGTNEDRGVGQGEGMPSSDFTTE
Compound,activity on FFA3 (hFFA3),IC50 (human neutrophils; propionate (C3) 1 mM) [nM],effect on respiratory burst induced by fMLP (human neutrophils; fMLP-induced),inhibition of propionate-induced respiratory burst (human neutrophils; propionate (C3) 1 mM),cAMP pIC50 (hFFA2),"IC50 (hFFA2; inhibition of propionate at FFA2, read-out: IC50 in cAMP assay)",LLEcAMP (hFFA2),LLEcAMP-logD (hFFA2),"IC50 (hFFA2; supplementary CSV, read-out: hFFA2 cAMP (pIC50) (converted)) [nM]","increase in potency (hFFA2; vs 16s, assay not specified) [fold]"
"COc1cccc(CC(=O)N[C@@H](Cc2ccc(C(F)(F)F)cc2)Cc2nnn[nH]2)c1 [Compound 16l, (S)-N-(1-(1H-Tetrazol-5-yl)-3-(4-(trifluoromethyl)phenyl)propan-2-yl)-2-(3-methoxyphenyl)acetamide]",devoid of activity,5.75,did not exhibit any effect,completely inhibit; also recorded: full inhibition; also recorded: complete inhibition,8.35 ± 0.15,3 to 4 nM and 4 nM,5.87,7.5 and 7.51,,
"O=C(O)C[C@H](Cc1ccc(C(F)(F)F)cc1)NC(=O)Cc1cccc(Cl)c1 [Compound 3, reference compound]",,46.8,,,6.96 ± 0.07,,2.75,5.57,,
"O=C(Cc1cncc(Br)c1)N[C@@H](Cc1ccc(C(F)(F)F)cc1)Cc1nnn[nH]1 [Compound 16w, (S)-3-(2-((1-(1H-Tetrazol-5-yl)-3-(4-(trifluoromethyl)phenyl)propan-2-yl)amino)-2-oxoethyl)-5-bromopyridin-1-ium 2,2,2-trifluoroacetate]",devoid of activity,,,,7.83 ± 0.14,,5.90,7.1 and 7.12,10.2,9
